Data as given in ChEMBL document CHEMBL1201862, “PubChem BioAssay data set” (2004).
Activity calls are given as the source filed them.

How the values were obtained:
Type in all cases: functional
Protein RecA = target: T1, Protein RecA (Mycobacterium tuberculosis, UniProt P9WHJ3); assay: Fluorescence Cell-Free Homogeneous Dose Retest to Identify Inhibitors of RecA-Intein Splicing Activity. [Related pubchem assays (depositor defined):AID2097, AID2223, AID489010, AID492950]
T1 sequence (P9WHJ3 whole entry): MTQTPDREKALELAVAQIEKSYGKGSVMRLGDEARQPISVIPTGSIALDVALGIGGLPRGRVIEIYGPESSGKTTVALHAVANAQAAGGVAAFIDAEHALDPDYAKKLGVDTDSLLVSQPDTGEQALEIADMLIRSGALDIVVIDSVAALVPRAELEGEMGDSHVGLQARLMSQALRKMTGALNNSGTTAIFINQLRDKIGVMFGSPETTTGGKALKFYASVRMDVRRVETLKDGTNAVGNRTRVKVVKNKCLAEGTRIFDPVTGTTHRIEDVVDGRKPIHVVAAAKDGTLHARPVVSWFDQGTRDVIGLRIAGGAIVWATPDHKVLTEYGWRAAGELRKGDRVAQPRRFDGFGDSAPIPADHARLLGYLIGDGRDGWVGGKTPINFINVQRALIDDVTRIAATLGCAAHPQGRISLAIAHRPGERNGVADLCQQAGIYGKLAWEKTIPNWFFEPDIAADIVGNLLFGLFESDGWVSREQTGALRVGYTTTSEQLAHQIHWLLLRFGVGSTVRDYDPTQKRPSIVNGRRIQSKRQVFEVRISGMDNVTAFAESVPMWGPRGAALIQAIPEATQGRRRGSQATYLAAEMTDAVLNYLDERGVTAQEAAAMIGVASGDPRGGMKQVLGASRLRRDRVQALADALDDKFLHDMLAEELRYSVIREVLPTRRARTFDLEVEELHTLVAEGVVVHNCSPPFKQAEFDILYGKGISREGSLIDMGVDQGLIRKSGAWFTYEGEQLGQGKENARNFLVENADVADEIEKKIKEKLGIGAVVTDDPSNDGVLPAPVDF

[1] = target: T2, Apoptotic protease-activating factor 1 (Homo sapiens, UniProt O14727)
T2 sequence (O14727 whole entry): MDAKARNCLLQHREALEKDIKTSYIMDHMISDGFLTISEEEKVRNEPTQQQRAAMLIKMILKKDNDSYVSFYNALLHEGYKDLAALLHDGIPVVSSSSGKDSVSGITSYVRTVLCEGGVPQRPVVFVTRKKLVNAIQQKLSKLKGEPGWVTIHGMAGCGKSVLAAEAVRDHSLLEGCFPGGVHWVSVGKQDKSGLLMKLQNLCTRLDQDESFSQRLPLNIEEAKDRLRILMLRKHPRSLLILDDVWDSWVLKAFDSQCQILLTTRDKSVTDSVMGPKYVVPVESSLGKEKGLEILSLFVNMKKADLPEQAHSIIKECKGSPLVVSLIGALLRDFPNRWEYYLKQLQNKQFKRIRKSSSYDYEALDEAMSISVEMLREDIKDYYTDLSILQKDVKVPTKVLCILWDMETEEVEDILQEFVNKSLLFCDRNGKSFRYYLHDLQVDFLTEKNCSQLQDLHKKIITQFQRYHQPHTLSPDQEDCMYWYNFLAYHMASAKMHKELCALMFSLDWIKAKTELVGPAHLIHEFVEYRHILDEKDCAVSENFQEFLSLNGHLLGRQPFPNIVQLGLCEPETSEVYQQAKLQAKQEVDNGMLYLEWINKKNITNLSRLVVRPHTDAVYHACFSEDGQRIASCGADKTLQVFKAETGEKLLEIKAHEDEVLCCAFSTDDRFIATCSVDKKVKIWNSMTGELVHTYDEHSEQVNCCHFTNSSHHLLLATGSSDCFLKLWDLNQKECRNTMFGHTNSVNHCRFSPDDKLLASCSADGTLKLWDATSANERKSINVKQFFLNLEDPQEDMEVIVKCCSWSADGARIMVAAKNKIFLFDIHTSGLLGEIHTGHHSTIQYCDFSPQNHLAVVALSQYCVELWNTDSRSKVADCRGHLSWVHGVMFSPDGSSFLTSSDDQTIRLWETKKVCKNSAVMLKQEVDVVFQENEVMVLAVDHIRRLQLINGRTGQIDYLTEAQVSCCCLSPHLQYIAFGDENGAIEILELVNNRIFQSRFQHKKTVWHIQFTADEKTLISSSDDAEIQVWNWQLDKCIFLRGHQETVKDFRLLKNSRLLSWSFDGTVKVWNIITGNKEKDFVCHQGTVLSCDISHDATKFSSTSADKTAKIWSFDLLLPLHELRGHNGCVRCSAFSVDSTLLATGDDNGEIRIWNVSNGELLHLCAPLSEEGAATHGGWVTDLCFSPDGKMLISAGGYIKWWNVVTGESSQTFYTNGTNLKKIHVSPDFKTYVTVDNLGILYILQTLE

[2] = target: T3, Replicative DNA helicase DnaB (Mycobacterium tuberculosis, UniProt P9WMR3); assay: DnaB intein splicing inhibitors, dose response, biochemical, cell-free fluorescence (AID 449749)
T3 sequence (P9WMR3 whole entry): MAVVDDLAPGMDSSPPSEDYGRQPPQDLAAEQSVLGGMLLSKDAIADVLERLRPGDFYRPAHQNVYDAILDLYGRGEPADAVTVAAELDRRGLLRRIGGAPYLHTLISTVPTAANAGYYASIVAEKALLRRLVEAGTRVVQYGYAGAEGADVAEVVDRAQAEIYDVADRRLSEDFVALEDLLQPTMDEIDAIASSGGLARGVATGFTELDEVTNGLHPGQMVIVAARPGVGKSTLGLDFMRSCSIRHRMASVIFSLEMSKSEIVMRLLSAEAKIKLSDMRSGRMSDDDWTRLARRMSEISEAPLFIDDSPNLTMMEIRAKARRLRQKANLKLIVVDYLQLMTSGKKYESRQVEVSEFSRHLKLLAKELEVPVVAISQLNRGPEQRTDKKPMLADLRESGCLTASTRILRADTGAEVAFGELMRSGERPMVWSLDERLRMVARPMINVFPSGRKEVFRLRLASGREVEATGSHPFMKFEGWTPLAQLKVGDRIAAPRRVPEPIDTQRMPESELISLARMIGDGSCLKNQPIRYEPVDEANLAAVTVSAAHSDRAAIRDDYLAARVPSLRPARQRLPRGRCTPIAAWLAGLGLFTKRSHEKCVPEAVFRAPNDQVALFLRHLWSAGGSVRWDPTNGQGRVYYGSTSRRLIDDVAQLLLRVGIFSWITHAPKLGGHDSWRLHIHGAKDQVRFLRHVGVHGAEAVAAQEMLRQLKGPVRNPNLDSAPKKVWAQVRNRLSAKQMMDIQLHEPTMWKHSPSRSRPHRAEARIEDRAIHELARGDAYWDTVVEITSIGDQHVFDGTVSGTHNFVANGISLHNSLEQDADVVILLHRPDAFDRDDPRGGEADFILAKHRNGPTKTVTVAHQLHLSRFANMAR

Row | SMILES | EC50 (Protein RecA) | IC50 [1] | AC50 [2]
1 | CCOC(=O)C1=C(c2ccccc2)N=C(N)NC1c1ccc(OCc2ccc(Cl)cc2)c(OC)c1 (stereo not given) | 14.3 µM (active) | 14.6 µM (active) | 8.68 µM (active)
2 | CCOC(=O)c1c(C)[nH]c2c1-c1ccccc1C(=O)C2=O | 1.82 µM (active) | – | 1.34 µM (active)
3 | O=C(c1ccccc1)c1coc2c1C(=O)c1ccccc1C2=O | – | 15 µM (active) | –
4 | CCOC(=O)c1c(C)oc2c1c(/C=N/CCC(=O)O)c(O)c1ccccc12 | 0.39 µM (active) | 12.3 µM (active) | > 380 µM (inactive)
5 | COc1ccc2c(c1)CCC(/C=N/c1ccc3c(c1)OCO3)=C2O | – | 17.4 µM (active) | –
